Here are results for one compound from PMC8524858, “Dual inhibition of αvβ6 and αvβ1 reduces fibrogenesis in lung tissue explants from patients with IPF” (Respiratory Research, 2021).

The structures appear in SMILES notation. pIC50: −log10 of the molar value.

Experiment [1] has as its target T1, human integrin αvβ6 (Homo sapiens, UniProt P06756+P18564).
T1 construct: purchased ACROBiosystems or R&D Systems IT6-H52E1 or 3817-AV
The experiment in a line: Integrin ligand-binding assay, αvβ6 (LAP ligand). The method, then: (§1) Integrin ligand-binding assays were performed similar to that previously described.
(§2) Microplates were coated with recombinant human integrins dissolved in PBS (2 µg/ml, overnight at room temperature). Following removal of the coating solution, plates were washed with PBS. Plates were blocked with 200 µL/well of blocking buffer (2% bovine serum albumin [BSA] in PBS) at 37 °C for 1 h. […] Plates were incubated for 2 h at 25 °C, washed, and incubated for 1 h with biotin-labeled anti-fibronectin or anti-LAP antibodies (for αvβ1 or αvβ6/αvβ8, respectively).

Experiment [2] concerns the target T2, human integrin αvβ1 (Homo sapiens, UniProt P05556+P06756).
T2 construct: purchased ACROBiosystems or R&D Systems IT1-H52E1 or 6579-AVB
Put plainly: Integrin ligand-binding assay, αvβ1 (fibronectin ligand). As to the method:
as §1, §2

For experiment [3], the target named is T3, human integrin αvβ5 (Homo sapiens, UniProt P06756+P18084).
T3 construct: purchased R&D Systems 2528-AV
T3 sequence (P06756 31-992 limits assumed): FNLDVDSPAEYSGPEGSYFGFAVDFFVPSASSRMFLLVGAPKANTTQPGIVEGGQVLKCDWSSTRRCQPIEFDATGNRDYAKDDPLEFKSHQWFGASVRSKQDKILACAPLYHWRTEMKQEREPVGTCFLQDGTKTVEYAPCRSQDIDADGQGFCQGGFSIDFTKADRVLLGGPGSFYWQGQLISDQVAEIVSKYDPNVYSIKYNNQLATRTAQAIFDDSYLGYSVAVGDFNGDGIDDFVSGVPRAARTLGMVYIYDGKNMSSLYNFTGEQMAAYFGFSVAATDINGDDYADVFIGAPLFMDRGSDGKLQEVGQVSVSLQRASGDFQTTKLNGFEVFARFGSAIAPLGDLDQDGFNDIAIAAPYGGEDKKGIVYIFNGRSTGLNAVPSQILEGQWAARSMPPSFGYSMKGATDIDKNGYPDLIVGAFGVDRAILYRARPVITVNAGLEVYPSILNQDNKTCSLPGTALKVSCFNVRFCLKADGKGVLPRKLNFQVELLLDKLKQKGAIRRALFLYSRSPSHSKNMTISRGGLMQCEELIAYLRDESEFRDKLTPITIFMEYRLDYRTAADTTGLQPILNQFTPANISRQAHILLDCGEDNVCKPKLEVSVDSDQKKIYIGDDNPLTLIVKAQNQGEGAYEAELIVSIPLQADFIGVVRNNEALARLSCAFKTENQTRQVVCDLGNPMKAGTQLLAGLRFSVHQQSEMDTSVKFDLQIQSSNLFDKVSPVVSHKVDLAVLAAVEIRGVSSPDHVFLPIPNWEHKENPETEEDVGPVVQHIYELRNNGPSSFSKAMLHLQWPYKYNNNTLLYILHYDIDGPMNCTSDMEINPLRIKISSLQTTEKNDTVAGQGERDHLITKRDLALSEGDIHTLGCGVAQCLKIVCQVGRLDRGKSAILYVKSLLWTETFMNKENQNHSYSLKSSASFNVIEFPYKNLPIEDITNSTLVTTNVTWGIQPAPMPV
T3 sequence (P18084 24-719 limits assumed): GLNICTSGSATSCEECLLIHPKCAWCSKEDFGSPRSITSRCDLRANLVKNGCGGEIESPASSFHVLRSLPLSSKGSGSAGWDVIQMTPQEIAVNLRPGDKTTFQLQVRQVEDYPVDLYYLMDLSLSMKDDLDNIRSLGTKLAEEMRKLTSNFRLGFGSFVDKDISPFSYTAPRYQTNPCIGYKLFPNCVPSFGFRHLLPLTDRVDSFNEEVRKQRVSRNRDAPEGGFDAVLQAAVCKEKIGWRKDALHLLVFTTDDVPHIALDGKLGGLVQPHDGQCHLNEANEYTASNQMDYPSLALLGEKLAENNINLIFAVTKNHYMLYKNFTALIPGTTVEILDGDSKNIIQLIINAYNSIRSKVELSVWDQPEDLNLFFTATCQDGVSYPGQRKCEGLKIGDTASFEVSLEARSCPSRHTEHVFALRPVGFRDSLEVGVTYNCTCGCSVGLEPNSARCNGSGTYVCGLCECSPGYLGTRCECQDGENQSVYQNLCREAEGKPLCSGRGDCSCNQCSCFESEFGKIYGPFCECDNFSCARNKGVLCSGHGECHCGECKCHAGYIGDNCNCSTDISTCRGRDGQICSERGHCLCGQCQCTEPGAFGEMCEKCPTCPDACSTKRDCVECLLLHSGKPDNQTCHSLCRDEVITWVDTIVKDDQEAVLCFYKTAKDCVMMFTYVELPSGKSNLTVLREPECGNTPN
The experiment in a line: Integrin ligand-binding assay, αvβ5 (vitronectin ligand). The method, then:
as §1, §2

Experiment [4] addresses T4, human integrin αvβ8 (Homo sapiens, UniProt P06756+P26012).
T4 construct: purchased R&D Systems 4135-AV
Put plainly: Integrin ligand-binding assay, αvβ8 (LAP ligand). As to the method:
as §1, §2

Experiment [5] concerns normal human bronchial epithelial cell adhesion to LAP (αvβ6 integrin-mediated). Put plainly: Primary cell LAP adhesion assay (cell impedance), NHBE. The format is cell-based. As to conditions: normal human bronchial epithelial cells, read-out: IC50 for inhibition of adhesion to LAP. As to the method: Adhesion of primary human lung cells to LAP was quantified using the xCELLigence RTCA MP instrument (ACEA Biosciences; San Diego, CA, USA) via cell impedance measurements similar to that previously described.
Adhesion assays were performed using the xCELLigence RTCA MP instrument (ACEA Biosciences; San Diego, CA, USA) on 96-well PET plates (ACEA Biosciences; 300600910) via a cell impedance measurement similar to one previously described (E6). Plates were coated with LAP (Sino Biological; 10804-H08H1) overnight at 4 °C and blocked with BSA for 2 h at 37 °C. NHLF (40,000 cells/well), dHLF (40,000 cells/well), or NHBE (20,000 cells per well) in FBS-free media were combined with small-molecule integrin inhibitors or antibodies in the plates and incubated at 37 °C with 5% CO2. […] Anti-αv antibody, 17E6, and anti-β1 antibody, P5D2, were tested at a single concentration (10 μg/ml). Cell impedance (cell index) was measured at baseline and every 3 min for up to 24 h using xCELLigence RTCA 2.1.0 Software (ACEA Biosciences). […] Geometric mean IC50 was calculated for each compound following repeat analyses of multiple donor cells.

For experiment [6], the system named is other αv integrins. The experiment in a line: Human integrin ligand-binding assays, selectivity over the panel. As to the method:
as §1
Microplates were coated with recombinant human integrins dissolved in PBS (2 µg/ml, overnight at room temperature). Following removal of the coating solution, plates were washed with PBS. Plates were blocked with 200 µL/well of blocking buffer (2% bovine serum albumin [BSA] in PBS) at 37 °C for 1 h. Serial dilutions of test compounds and 2 µg/ml of recombinant ligands were added: fibronectin (R&D Systems #1918-Fn) for integrin αvβ1, LAP (Sino Biological #10804-H08H1; Beijing, China) for integrins αvβ6 and αvβ8, or biotin-tagged vitronectin (Molecular Innovations, Inc. #HVNUBIO) for integrins αvβ3 and αvβ5 in binding/wash buffer (50 mM Tris-HCl, pH 7.5; 0.1% BSA, NaCl 150 mM; 0.02% Tween-20; 1 mM CaCl2; 1 mM MnCl2; 1 mM MgCl2). Plates were incubated for 2 h at 25 °C, washed, and incubated for 1 h with biotin-labeled anti-fibronectin or anti-LAP antibodies (for αvβ1 or αvβ6/αvβ8, respectively). After washing, bound antibody was incubated with peroxidase-conjugated streptavidin (Thermo Fisher #21134; 1:2000 dilution) for 30 minutes (min) at room temperature. Following an additional washing step, 100 μL TMB substrate (BD Biosciences #555214; San Jose, CA, USA) was added and integrin binding was quantified by measuring absorbance at 450 nm by a Tecan Spark 10M plate reader (Tecan; Männedorf, Switzerland).

Experiment [7] deals with PCLSs prepared from explanted lung tissue from patients with IPF. The experiment in a line: Fibrotic gene expression in PCLSs from IPF lung explants. The format is cell-based, human. The text has this: PCLSs were generated from explanted lung tissue from patients with IPF and cultured as previously described. Mouse PCLSs were generated and cultured as previously described. Messenger ribonucleic acid (mRNA) levels in lysates prepared from snap-frozen tissue slices were quantified via NanoString PlexSet reagents and nCounter SPRINT Profiler (NanoString; Seattle, WA, USA; Additional file 1: Table S2) or TaqMan primers/probes on a Bio-Rad CFX96 thermocycler (Bio-Rad; Hercules, CA, USA; Additional file 1: Table S3).
Human PCLSs were generated from lung tissue explants from patients with IPF undergoing transplant surgery and cultured based on previously reported methods (E7-E12). Slices of tissue (400 µm) were cut using a Compresstome VF-300-0Z (Precisionary Instruments; Natick, MA, USA).
Slices from each individual core (human) or mouse were distributed among the treatment groups to control for variability in the fibrotic injury within the tissue. […] After 3 or 7 days in culture, slices were washed and snap-frozen. Viability of sentinel slices on Days 0/1 and 3/7 was determined using WST-1 Cell Proliferation Reagent (Sigma 5015944001; St Louis, MO, USA).
For all figures (except Fig. 2B, Fig. S2, and Fig. S4), snap-frozen tissue slices were incubated in one-third RLT buffer (Qiagen #79216; Venlo, Netherlands) supplemented with 2 mg/ml proteinase K (Sigma-Aldrich #3115887001; St Louis, MO, USA) at 55 °C for 2 h 45 min, with periodic vortexing to generate ribonucleic acid (RNA)-compatible tissue lysate. This lysate was incubated overnight with probes from a custom fibrosis gene panel and NanoString PlexSet reagents (Table S2). The following day, samples were analyzed on a NanoString nCounter SPRINT Profiler (NanoString; Seattle, WA, USA). Messenger RNA (mRNA) counts were normalized to housekeeping genes (GUSB, HPRT1, RPLP0, and/or POLR1B) and total mRNA counts, relative to vehicle-treated control from the same experiment, are reported.

The mark [8] stands for this setting: 7 days, PLN-74809 200 nM, relative to vehicle (Fig. 6B).

T2 sequence (P06756 31-992 limits assumed): as the sequence (P06756 31-992 limits assumed) above
T2 sequence (P05556 21-728 limits assumed): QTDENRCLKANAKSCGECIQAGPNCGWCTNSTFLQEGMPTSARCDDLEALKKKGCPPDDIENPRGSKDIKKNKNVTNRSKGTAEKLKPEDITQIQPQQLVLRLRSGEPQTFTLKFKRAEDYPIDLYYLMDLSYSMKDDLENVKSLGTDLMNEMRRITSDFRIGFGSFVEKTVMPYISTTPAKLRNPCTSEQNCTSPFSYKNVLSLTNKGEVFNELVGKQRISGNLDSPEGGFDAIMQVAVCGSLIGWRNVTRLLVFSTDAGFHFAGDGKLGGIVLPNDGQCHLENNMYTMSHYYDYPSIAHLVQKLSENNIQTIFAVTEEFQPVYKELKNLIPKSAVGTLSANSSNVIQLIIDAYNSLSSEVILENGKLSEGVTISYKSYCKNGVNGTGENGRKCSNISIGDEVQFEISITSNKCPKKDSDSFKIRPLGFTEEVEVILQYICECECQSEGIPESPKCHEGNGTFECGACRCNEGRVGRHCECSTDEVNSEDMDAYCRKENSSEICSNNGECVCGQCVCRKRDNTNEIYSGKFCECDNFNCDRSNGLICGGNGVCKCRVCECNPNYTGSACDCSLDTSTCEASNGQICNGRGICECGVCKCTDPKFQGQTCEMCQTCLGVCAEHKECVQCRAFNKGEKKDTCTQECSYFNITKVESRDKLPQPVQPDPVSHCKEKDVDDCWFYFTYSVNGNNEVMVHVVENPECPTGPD
T1 sequence (P06756 31-992 limits assumed): as the sequence (P06756 31-992 limits assumed) above
T1 sequence (P18564 22-707 limits assumed): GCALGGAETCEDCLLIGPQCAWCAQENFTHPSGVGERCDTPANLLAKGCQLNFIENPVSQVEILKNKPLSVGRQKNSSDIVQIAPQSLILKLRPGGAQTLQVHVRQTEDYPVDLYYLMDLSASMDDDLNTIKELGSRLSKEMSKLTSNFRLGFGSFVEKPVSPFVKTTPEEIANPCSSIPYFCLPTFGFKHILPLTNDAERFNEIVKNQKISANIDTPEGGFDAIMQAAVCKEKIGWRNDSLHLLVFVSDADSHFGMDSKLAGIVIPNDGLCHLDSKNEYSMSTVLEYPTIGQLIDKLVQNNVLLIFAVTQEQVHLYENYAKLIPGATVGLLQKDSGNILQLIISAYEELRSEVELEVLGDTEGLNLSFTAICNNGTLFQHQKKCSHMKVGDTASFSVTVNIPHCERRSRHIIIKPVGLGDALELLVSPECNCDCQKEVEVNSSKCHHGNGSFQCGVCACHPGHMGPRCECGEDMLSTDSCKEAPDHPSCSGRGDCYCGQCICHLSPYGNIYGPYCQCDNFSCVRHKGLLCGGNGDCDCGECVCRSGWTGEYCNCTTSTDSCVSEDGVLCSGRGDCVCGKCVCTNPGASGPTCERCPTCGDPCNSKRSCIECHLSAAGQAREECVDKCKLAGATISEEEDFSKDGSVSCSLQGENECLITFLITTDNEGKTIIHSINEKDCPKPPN
T4 sequence (P06756 31-992 limits assumed): as the sequence (P06756 31-992 limits assumed) above
T4 sequence (P26012 43-684 limits assumed): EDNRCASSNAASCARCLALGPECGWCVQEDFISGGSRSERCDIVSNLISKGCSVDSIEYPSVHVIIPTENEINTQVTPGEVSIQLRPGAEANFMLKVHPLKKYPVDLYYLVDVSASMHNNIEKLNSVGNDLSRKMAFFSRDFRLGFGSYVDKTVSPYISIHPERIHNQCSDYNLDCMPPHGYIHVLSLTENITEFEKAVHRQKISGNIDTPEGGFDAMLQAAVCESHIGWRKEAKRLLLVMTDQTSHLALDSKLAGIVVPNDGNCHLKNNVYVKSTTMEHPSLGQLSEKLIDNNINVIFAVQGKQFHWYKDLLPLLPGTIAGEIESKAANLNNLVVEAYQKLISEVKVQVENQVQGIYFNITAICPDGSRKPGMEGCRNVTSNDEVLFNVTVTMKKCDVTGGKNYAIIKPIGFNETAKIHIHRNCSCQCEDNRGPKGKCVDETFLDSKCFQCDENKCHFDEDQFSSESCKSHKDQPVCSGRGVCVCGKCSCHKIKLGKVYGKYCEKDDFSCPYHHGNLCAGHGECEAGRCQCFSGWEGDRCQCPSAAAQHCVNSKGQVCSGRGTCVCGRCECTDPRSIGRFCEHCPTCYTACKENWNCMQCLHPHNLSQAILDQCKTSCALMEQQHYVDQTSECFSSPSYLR

Take `COCCN(CCCCc1ccc2c(n1)NCCC2)CC[C@H](Nc1ncnc2ccccc12)C(=O)O` [PLN-74809]: the negative-log IC50 (pIC50) in experiment [1] was 8.24; in experiment [2], 8.47; in experiment [3] it was 5.16; in experiment [4] it was 5.60; in experiment [5], 7.41. Besides, the “Fold selectivity (vs αvβ6)” value amounted to 1× in experiment [1] (ligand binding), 0.6× in experiment [2] (ligand binding), 1226× in experiment [3] (ligand binding) and 445× in experiment [4] (ligand binding). The “selectivity over other αv integrins” value in experiment [6] was not below 445 fold. Further, the “reduction of COL1A1 mRNA expression” value is on record as 54% in experiment [7] (7-day incubation, Compound A 471 nM, 3G9 0.5 µg/ml, PLN-74809 1.82 µM, ALK5i R-268712 1 µM, vs vehicle (Fig. 1A)) and 42% in experiment [7] (7 days, PLN-74809 200 nM, nintedanib 75 nM, pirfenidone 50 µM, vs DMSO (Fig. 6A)). Further, the “reduction of COL3A1 expression” value in experiment [7] (setting [8]) worked out at 30%. Further, the “reduction of SERPINE1 expression” value in experiment [7] (setting [8]) is 39%. Also, the “reduction of TIMP1 expression” value in experiment [7] (setting [8]) was 26%. Further, the “reduction of collagen gene expression” value in experiment [7] (at concentrations as low as 2 nM, explanted tissue from a patient with IPF) is given as ~ 50%. Also, the “lowest concentration sufficient to significantly reduce COL1A1 expression” value in experiment [7] (dose titration, PCLSs from a single patient with IPF (Fig. S1C)) is 2 nM.

By pIC50 is commonly meant the negative decadic logarithm of the IC50, by convention in mol/L.
